Source: patent publication US9321773B2, “Compounds” (Respivert Ltd, priority 2009, dated 2016)
Read-outs that look alike come from different tables or passages of the source.

What was measured:
recombinant PI3 kinase α = recombinant PI3 kinase α (Homo sapiens (Human), UniProt P42336); experiment: Enzyme Inhibition Assay (HTRF PI3K enzyme assay, TR-FRET); type: biochemical
Text: (§1) PI3 kinases catalyse the phosphorylation of phosphatidylinositol 4,5-biphosphate (PIP2) to phosphatidylinositol 3,4,5-triphosphate (PIP3) in the presence of ATP and Mg^2+ ions. The PIP3 product can be detected by displacement of biotin-PIP3 from energy transfer complexes consisting of europium labelled anti-GST monoclonal antibody, a GST-tagged Pleckstrin homology (PH) domain, biotinylated PIP3 and streptavidin-allophycocyanin (APC) by the time-resolved fluorescence resonance energy transfer (TR-FRET) (HTRF® PI3K enzyme assay, Millipore). […] The PIP3 product formed by PI3K activity displaces biotin-PIP3 from the complex and results in a loss of energy transfer (decreasing signal).
(§2) The compound to be tested was added, at the desired final concentrations, to a mixture of PIP2 substrate and recombinant PI3 kinase α, δ or γ enzymes (Millipore), and the mixture incubated for 2 hr at RT. […] A stopping solution containing biotinylated PIP3 and the detection mix containing the GST tagged GRP1 pleckstrin homology (PH) domain and fluorophores were then added and the mixture was incubated at RT for 15-18 hr, prior to detection in a fluorescence microplate reader (Varioskan® Flash, ThermoFisher Scientific).

recombinant PI3 kinase δ = recombinant PI3 kinase δ (Homo sapiens (Human), UniProt O00329); experiment: as above; type: biochemical
Sequence of recombinant PI3 kinase δ (O00329 whole entry): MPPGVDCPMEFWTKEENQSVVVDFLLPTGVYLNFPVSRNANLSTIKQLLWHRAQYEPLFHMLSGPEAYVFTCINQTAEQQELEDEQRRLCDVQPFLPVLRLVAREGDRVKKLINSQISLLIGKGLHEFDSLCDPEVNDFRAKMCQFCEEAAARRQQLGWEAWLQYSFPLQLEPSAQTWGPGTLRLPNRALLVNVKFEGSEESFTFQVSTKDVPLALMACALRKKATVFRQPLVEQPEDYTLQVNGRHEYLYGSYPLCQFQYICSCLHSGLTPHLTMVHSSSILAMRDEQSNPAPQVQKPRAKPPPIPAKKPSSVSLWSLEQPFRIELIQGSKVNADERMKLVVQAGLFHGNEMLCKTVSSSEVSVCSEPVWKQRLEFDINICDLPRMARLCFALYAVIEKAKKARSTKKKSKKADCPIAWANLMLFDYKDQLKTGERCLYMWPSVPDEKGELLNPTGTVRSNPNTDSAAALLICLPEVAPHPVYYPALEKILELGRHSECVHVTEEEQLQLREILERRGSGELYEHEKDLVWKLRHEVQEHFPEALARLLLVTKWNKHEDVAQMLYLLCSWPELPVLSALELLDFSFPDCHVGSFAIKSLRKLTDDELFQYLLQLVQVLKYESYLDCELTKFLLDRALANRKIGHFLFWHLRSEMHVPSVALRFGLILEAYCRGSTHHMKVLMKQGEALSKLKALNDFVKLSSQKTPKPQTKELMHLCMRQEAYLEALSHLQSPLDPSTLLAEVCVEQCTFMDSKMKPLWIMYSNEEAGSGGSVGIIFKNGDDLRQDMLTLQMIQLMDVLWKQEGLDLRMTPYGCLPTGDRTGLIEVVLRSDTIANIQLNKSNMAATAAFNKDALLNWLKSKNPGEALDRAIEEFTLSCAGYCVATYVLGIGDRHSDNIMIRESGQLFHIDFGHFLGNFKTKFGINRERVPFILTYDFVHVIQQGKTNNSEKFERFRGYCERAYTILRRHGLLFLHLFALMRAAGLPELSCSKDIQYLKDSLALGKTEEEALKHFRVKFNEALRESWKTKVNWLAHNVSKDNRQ
Sequence of recombinant PI3 kinase δ (P27986 whole entry partner): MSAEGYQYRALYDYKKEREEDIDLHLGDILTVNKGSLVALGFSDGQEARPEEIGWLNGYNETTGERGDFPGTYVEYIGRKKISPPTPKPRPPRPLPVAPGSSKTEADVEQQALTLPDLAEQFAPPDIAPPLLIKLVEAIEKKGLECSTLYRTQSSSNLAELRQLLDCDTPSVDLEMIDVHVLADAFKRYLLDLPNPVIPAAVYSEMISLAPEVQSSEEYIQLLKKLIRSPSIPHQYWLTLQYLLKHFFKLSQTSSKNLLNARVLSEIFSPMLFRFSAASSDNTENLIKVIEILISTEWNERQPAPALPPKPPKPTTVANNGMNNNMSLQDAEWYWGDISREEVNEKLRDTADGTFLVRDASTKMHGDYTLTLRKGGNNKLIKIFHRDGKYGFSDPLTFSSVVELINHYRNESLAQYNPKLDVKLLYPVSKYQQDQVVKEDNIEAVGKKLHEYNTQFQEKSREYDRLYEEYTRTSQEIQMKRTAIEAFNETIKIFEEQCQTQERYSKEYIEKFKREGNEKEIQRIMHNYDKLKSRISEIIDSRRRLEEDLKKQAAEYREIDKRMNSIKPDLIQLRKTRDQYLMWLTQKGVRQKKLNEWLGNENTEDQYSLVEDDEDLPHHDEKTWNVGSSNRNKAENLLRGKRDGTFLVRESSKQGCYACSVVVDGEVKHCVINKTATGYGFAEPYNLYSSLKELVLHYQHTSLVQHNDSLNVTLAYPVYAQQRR
Text: as §1, §2

recombinant PI3 kinase γ = recombinant PI3 kinase γ (Homo sapiens (Human), UniProt P48736); experiment: as above; type: biochemical
Sequence of recombinant PI3 kinase γ (P48736 whole entry): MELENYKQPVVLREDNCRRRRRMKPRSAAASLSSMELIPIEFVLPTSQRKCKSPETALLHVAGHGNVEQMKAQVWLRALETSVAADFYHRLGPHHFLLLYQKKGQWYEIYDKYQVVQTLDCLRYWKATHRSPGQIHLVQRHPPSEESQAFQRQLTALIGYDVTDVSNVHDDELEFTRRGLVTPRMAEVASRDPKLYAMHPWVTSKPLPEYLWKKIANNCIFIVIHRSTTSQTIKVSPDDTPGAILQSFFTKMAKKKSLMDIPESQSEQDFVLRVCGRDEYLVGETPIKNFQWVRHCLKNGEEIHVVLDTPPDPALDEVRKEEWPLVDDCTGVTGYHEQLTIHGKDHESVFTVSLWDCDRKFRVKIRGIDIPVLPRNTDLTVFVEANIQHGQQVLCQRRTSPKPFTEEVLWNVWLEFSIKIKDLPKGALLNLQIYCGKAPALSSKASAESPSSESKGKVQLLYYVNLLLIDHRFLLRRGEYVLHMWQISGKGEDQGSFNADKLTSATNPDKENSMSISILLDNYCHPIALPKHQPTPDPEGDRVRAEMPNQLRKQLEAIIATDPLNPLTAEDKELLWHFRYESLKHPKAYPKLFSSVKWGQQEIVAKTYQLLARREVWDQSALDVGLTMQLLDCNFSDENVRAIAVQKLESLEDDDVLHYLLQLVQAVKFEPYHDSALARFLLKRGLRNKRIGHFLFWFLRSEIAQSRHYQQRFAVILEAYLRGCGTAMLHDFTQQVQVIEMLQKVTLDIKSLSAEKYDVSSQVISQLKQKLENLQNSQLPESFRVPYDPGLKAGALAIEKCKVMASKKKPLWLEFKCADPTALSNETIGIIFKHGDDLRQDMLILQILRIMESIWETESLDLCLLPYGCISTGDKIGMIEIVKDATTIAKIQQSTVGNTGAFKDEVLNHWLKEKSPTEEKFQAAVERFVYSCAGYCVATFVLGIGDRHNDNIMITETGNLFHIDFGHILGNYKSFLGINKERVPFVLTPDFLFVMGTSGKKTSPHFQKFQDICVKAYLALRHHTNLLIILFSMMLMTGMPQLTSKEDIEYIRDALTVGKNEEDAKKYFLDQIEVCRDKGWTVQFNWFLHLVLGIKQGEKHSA
Text: as §1, §2

[1] = test system: H2O2 induced pAkt in D-U937 cells; experiment: PI3Kδ Cell Based Assay (H2O2 induced pAkt); conditions: Homo sapiens
Procedure: As a means of assessing PI3K 6 activation in response to stimuli, the phosphorylation status of the protein, Akt, a downstream product of PI3K6, signaling was determined. Human monocytic cells (U937 cells), were differentiated to macrophage-type cells by incubation with phorbol myristate acetate (PMA; 100 ng/mL) for 48 to 72 hr. […] The cells were washed with buffer (PBS containing 0.1% Triton X-100) and were incubated with blocking solution (1% BSA in PBS) for 1 hr and were then re-washed with buffer and incubated overnight with either anti-pAkt antibody or anti-pan-Akt antibody (both from Cell Signaling Technology). […] This reaction was stopped by addition of 100 μL of 1N H2SO4 solution. […] The ratio of pAkt signal to total Akt signal was used to quantitate the extent of PI3K δ activation. […] The IC50 values were calculated from the concentration-response curves generated by the serial dilutions of the test compounds (Table 3 and Table 4).

[2] = test system: PMA-differentiated U937 cells; experiment: MTT Assay (cell viability); type: cell-based, Human; conditions: percentage loss of cell viability; for Cell Viability MTT Assay in D-U937 cells at 4 hr: 4 hr in 5% FCS; for Cell Viability MTT Assay in D-U937 cells at 24 hr: 24 hr in 10% FCS
Procedure: PMA-differentiated U937 cells were pre-incubated with compound for 4 hr in 5% FCS or 10% FCS for 24 hr. The supernatant was replaced with 200 μL of new media and 10 μL of MTT stock solution (5 mg/ml) added to each well. After 1 hr incubation, the media were removed, 200 μL of DMSO added to each well and the plates were shaken lightly for 1 hr prior to reading the absorbance at 550 nm. The percentage loss of cell viability was calculated for each well relative to vehicle (0.5% DMSO)-treatment (Table 3).

[3] = activity range, read-out: PI3 Kinase Inhibition IC50 values at stated Isozyme α
[4] = activity range, read-out: PI3 Kinase Inhibition IC50 values at stated Isozyme δ
[5] = activity range, read-out: PI3 Kinase Inhibition IC50 values at stated Isozyme γ
[6] = dU937, activity range, D-U937 cells, read-out: Cellular Activity IC50 values (H2O2 induced pAkt D-U937 Cells)

Sequence of recombinant PI3 kinase α (P42336 whole entry): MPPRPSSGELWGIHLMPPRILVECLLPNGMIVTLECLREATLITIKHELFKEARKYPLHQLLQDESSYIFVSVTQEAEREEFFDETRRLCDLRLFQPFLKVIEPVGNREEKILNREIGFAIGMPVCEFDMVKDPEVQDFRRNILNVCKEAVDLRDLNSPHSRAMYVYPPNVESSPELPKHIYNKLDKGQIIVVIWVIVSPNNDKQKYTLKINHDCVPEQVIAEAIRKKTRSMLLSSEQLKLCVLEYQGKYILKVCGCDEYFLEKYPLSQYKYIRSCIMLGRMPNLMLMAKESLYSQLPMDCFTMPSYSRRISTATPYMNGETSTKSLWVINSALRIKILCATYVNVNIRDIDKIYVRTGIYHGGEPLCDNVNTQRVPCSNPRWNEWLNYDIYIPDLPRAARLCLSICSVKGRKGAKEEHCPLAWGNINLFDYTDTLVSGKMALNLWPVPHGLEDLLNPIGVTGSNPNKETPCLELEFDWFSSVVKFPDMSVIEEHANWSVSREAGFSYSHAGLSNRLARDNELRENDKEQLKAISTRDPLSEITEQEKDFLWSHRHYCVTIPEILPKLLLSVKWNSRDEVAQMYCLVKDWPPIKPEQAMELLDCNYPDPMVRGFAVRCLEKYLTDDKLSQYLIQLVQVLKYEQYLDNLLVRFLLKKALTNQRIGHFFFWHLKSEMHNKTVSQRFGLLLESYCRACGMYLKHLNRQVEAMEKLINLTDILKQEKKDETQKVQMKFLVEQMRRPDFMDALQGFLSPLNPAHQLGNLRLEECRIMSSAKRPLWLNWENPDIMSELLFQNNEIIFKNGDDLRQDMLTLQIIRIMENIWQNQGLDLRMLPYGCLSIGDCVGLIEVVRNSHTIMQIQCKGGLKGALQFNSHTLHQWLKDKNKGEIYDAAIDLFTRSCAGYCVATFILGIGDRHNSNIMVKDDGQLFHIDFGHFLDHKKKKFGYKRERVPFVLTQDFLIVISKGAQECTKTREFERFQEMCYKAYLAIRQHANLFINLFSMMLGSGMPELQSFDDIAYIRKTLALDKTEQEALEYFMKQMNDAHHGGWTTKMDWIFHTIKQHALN
Sequence of recombinant PI3 kinase α (P27986 whole entry partner): as the sequence (P27986 whole entry partner) above

| SMILES | IC50 (recombinant PI3 kinase α; [3]) | IC50 (recombinant PI3 kinase δ; [4]) | IC50 (recombinant PI3 kinase γ; [5]) | IC50 ([1]; dU937, read-out: Cellular Activity IC50 values (H2O2 induced pAkt D-U937 Cells)) | Cell Viability MTT Assay in D-U937 cells at 4 hr [2] | Cell Viability MTT Assay in D-U937 cells at 24 hr [2] | IC50 [1, 6] | IC50 (recombinant PI3 kinase α; read-out: PI3 Kinase Inhibition IC50 values at stated Isozyme (nM) α) | IC50 (recombinant PI3 kinase δ; read-out: PI3 Kinase Inhibition IC50 values at stated Isozyme (nM) δ) | IC50 (recombinant PI3 kinase γ; read-out: PI3 Kinase Inhibition IC50 values at stated Isozyme (nM) γ) | IC50 ([1]; dU937, read-out: Cellular Activity IC50 values (H2O2 induced pAkt (nM) D-U937 Cells)) |
| --- | --- | --- | --- | --- | --- | --- | --- | --- | --- | --- | --- |
| Nc1ncnc2c1c(-c1cccc(O)c1)nn2Cc1nc2cccc(C#CCOCCN3CCOCC3)c2c(=O)n1Cc1ccccc1Cl [Example 8, 2-((4-Amino-3-(3-hydroxyphenyl)-1H-pyrazolo[3,4-d]pyrimidin-1-yl)methyl)-3-(2-chlorobenzyl)-5-(3-(2-morpholinoethoxy)prop-1-ynyl)quinazolin-4(3H)-one] | 50 to 1000 nM | < 50 nM | 50 to 1000 nM | < 10 nM | − (− <30%) | − (− <30%) | – | – | – | – | – |
| COCC#Cc1cccc2nc(Cn3nc(-c4cccc(O)c4)c4c(N)ncnc43)n(Cc3ccc(Cl)cc3)c(=O)c12 [Example 26, 2-((4-Amino-3-(3-hydroxyphenyl)-1H-pyrazolo[3,4-d]pyrimidin-1-yl)methyl)-3-(4-chlorobenzyl)-5-(3-methoxyprop-1-ynyl)quinazolin-4(3H)-one] | 50 to 1000 nM | < 50 nM | 50 to 1000 nM | – | − (− <30%) | − (− <30%) | < 10 nM | – | – | – | – |
| COCC#Cc1cccc2nc(Cn3nc(-c4ccc(O)cc4)c4c(N)ncnc43)n(Cc3cccc(OC)c3)c(=O)c12 [Example 27, 2-((4-Amino-3-(4-hydroxyphenyl)-1H-pyrazolo[3,4-d]pyrimidin-1-yl)methyl)-3-(3-methoxybenzyl)-5-(3-methoxyprop-1-ynyl)quinazolin-4(3H)-one] | 50 to 1000 nM | < 50 nM | 50 to 1000 nM | – | − (− <30%) | − (− <30%) | < 10 nM | – | – | – | – |
| COCC#Cc1cccc2nc(Cn3nc(-c4ccc(O)cc4)c4c(N)ncnc43)n(Cc3ccccc3Cl)c(=O)c12 [Example 28, 2-((4-Amino-3-(4-hydroxyphenyl)-1H-pyrazolo[3,4-d]pyrimidin-1-yl)methyl)-3-(2-chlorobenzyl)-5-(3-methoxyprop-1-ynyl)quinazolin-4(3H)-one] | 50 to 1000 nM | < 50 nM | 50 to 1000 nM | – | − (− <30%) | − (− <30%) | < 10 nM | – | – | – | – |
| C#Cc1cccc2nc(Cn3nc(-c4ccc(O)cc4)c4c(N)ncnc43)n(Cc3ccc(C(F)(F)F)cc3)c(=O)c12 [Example 29, 2-((4-Amino-3-(4-hydroxyphenyl)-1H-pyrazolo[3,4-d]pyrimidin-1-yl)methyl)-5-ethynyl-3-(4-(trifluoromethyl)benzyl)quinazolin-4(3H)-one] | 50 to 1000 nM | < 50 nM | 50 to 1000 nM | – | − (− <30%) | − (− <30%) | < 10 nM | – | – | – | – |
| C#Cc1cccc2nc(Cn3nc(-c4ccc(O)cc4)c4c(N)ncnc43)n(Cc3ccc(Cl)cc3F)c(=O)c12 [Example 35, 2-((4-Amino-3-(4-hydroxyphenyl)-1H-pyrazolo[3,4-d]pyrimidin-1-yl)methyl)-3-(4-chloro-2-fluorobenzyl)-5-ethynylquinazolin-4(3H)-one] | 50 to 1000 nM | < 50 nM | 50 to 1000 nM | – | − (− <30%) | − (− <30%) | < 10 nM | – | – | – | – |
| C#Cc1cccc2nc(Cn3nc(-c4ccc(O)c(F)c4)c4c(N)ncnc43)n(Cc3ccccc3Cl)c(=O)c12 [Example 36, 2-((4-Amino-3-(3-fluoro-4-hydroxyphenyl)-1H-pyrazolo[3,4-d]pyrimidin-1-yl)methyl)-3-(2-chlorobenzyl)-5-ethynylquinazolin-4(3H)-one] | 50 to 1000 nM | < 50 nM | > 1000 nM | – | − (− <30%) | − (− <30%) | < 10 nM | – | – | – | – |
| COCC#Cc1cccc2nc(Cn3nc(-c4cccc(O)c4)c4c(N)ncnc43)n(Cc3cccc(C(F)(F)F)c3)c(=O)c12 [Example 37, 2-((4-Amino-3-(3-hydroxyphenyl)-1H-pyrazolo[3,4-d]pyrimidin-1-yl)methyl)-5-(3-methoxyprop-1-ynyl)-3-(3-(trifluoromethyl)benzyl)quinazolin-4(3H)-one] | 50 to 1000 nM | < 50 nM | > 1000 nM | – | − (− <30%) | − (− <30%) | < 10 nM | 474 nM | 12 nM | 1610 nM | 0.33 nM |
| Nc1ncnc2c1c(-c1ccc(O)cc1)nn2Cc1nc2cccc(C#CCC3CCCC3)c2c(=O)n1Cc1ccccc1Cl [Example 39, 2-((4-Amino-3-(4-hydroxyphenyl)-1H-pyrazolo[3,4-d]pyrimidin-1-yl)methyl)-3-(2-chlorobenzyl)-5-(3-cyclopentylprop-1-ynyl)quinazolin-4(3H)-one] | < 50 nM | < 50 nM | 50 to 1000 nM | – | − (− <30%) | − (− <30%) | < 10 nM | – | – | – | – |
| Nc1ncnc2c1c(-c1ccc(O)cc1)nn2Cc1nc2cccc(C#CCOCc3ccccc3)c2c(=O)n1Cc1ccccc1Cl [Example 40, 2-((4-Amino-3-(4-hydroxyphenyl)-1H-pyrazolo[3,4-d]pyrimidin-1-yl)methyl)-5-(3-(benzyloxy)prop-1-ynyl)-3-(2-chlorobenzyl)quinazolin-4(3H)-one] | 50 to 1000 nM | < 50 nM | 50 to 1000 nM | – | − (− <30%) | − (− <30%) | < 10 nM | – | – | – | – |
| Nc1ncnc2c1c(-c1ccc(O)cc1)nn2Cc1nc2cccc(C#CCCCO)c2c(=O)n1Cc1ccccc1Cl [Example 41, 2-((4-Amino-3-(4-hydroxyphenyl)-1H-pyrazolo[3,4-d]pyrimidin-1-yl)methyl)-3-(2-chlorobenzyl)-5-(5-hydroxypent-1-ynyl)quinazolin-4(3H)-one] | 50 to 1000 nM | < 50 nM | 50 to 1000 nM | – | − (− <30%) | − (− <30%) | < 10 nM | – | – | – | – |
| C#Cc1cccc2nc(Cn3nc(-c4ccc(O)cc4)c4c(N)ncnc43)n(Cc3cc(OC)ccc3F)c(=O)c12 [Example 42, 2-((4-Amino-3-(4-hydroxyphenyl)-1H-pyrazolo[3,4-d]pyrimidin-1-yl)methyl)-5-ethynyl-3-(2-fluoro-5-methoxybenzyl)quinazolin-4(3H)-one] | 50 to 1000 nM | < 50 nM | 50 to 1000 nM | – | − (− <30%) | − (− <30%) | < 10 nM | – | – | – | – |
| C#Cc1cccc2nc(Cn3nc(-c4ccc(O)cc4)c4c(N)ncnc43)n(Cc3ccc(Cl)c(Cl)c3)c(=O)c12 [Example 43, 2-((4-Amino-3-(4-hydroxyphenyl)-1H-pyrazolo[3,4-d]pyrimidin-1-yl)methyl)-3-(3,4-dichlorobenzyl)-5-ethynylquinazolin-4(3H)-one] | 50 to 1000 nM | < 50 nM | 50 to 1000 nM | – | − (− <30%) | − (− <30%) | < 10 nM | – | – | – | – |
